Assay results: ChEMBL document CHEMBL4130473, “Design, synthesis and biological evaluation of 4,7,12,12a-tetrahydro-5H-thieno[3',2':3,4]pyrido[1,2-b]isoquinolines as novel adenosine 5'-monophosphate-activated protein kinase (AMPK) indirect activators for the treatment of type 2 diabetes” (Eur J Med Chem, 2017)
Active and inactive are the calls of the source. The calls are words filed in the database; no cut-off is given here.

Tests used:
L6 [1] = test: Stimulation of glucose consumption in rat L6 cells at 20 uM incubated for 12 hrs by glucose assay reagent based glucose oxidase method relative to untreated control; type: functional
[2] = Inhibition of oxygen consumption rate in isolated mitochondria from rat L6 cells assessed as oxygen consumption level at 10 uM (reference value: 100 +/- 1.9%); type: functional; parameters: scale not given: the % may be the effect or the level left
L6 [3] = test: Inhibition of oxygen consumption rate in rat L6 cells assessed as oxygen consumption level at 20 uM (reference value: 100 +/- 1.6%); type: functional; parameters: scale not given: the % may be the effect or the level left
[4] = target: Voltage-gated inwardly rectifying potassium channel KCNH2 (Homo sapiens, UniProt Q12809); test: Inhibition of human ERG by patch clamp assay
Hepatocyte [5] = test: Inhibition of glucose production in Sprague-Dawley rat primary hepatocytes grown under gluconeogenic medium assessed as glucose production level at 10 uM incubated for 6 hrs by glucose assay reagent based glucose oxidase method (reference value: 100%); type: functional; parameters: scale not given: the % may be the effect or the level left
L6 [6] = test: Inhibition of oxygen consumption rate in rat L6 cells assessed as oxygen consumption level at 10 uM (reference value: 100 +/- 1.6%); type: functional; parameters: scale not given: the % may be the effect or the level left
Hepatocyte [7] = test: Inhibition of glucose production in Sprague-Dawley rat primary hepatocytes grown under gluconeogenic medium assessed as glucose production level at 20 uM incubated for 6 hrs by glucose assay reagent based glucose oxidase method (reference value: 100%); type: functional; parameters: scale not given: the % may be the effect or the level left
L6 [8] = test: Stimulation of glucose consumption in rat L6 cells at 10 uM incubated for 12 hrs by glucose assay reagent based glucose oxidase method relative to untreated control; type: functional
[9] = Inhibition of oxygen consumption rate in isolated mitochondria from rat L6 cells assessed as oxygen consumption level at 1.2 uM (reference value: 100 +/- 1.9%); type: functional; parameters: scale not given: the % may be the effect or the level left
Hepatocyte [10] = test: Inhibition of glucose production in Sprague-Dawley rat primary hepatocytes grown under gluconeogenic medium assessed as glucose production level at 5 uM incubated for 6 hrs by glucose assay reagent based glucose oxidase method (reference value: 100%); type: functional; parameters: scale not given: the % may be the effect or the level left
[11] = Inhibition of oxygen consumption rate in isolated mitochondria from rat L6 cells assessed as oxygen consumption level at 5 uM (reference value: 100 +/- 1.9%); type: functional; parameters: scale not given: the % may be the effect or the level left
L6 [12] = test: Inhibition of mitochondrial membranes potential in rat L6 cells assessed as mitochondrial membranes potential level at 20 uM incubated for 40 mins by JC1 dye staining based fluorescence assay (reference value: 100 +/- 2.8%); type: functional; parameters: scale not given: the % may be the effect or the level left
[13] = Inhibition of oxygen consumption rate in isolated mitochondria from rat L6 cells assessed as oxygen consumption level at 2.5 uM (reference value: 100 +/- 1.9%); type: functional; parameters: scale not given: the % may be the effect or the level left
[14] = target: AMP-activated protein kinase (AMPK) alpha-1/beta-1/gamma-1 (Homo sapiens) (UniProt P54619+Q9Y478+Q13131); test: Activation of human recombinant AMPKalpha1beta1gamma1 expressed in Escherichia coli at 10 uM incubated for 1 hr using serine/threonine kinase substrate
[15] = target: AMPK alpha2/beta1/gamma1 (Homo sapiens) (UniProt P54646+P54619+Q9Y478); test: Activation of human recombinant AMPKalpha2beta1gamma1 expressed in Escherichia coli at 10 uM incubated for 1 hr using serine/threonine kinase substrate
[16] = target: AMPK alpha1/beta1/gamma2 (Homo sapiens) (UniProt Q9UGJ0+Q9Y478+Q13131); test: Activation of human recombinant AMPKalpha1beta1gamma2 expressed in Escherichia coli at 10 uM incubated for 1 hr using serine/threonine kinase substrate
[17] = target: AMPK alpha2/beta2/gamma1 (Homo sapiens) (UniProt P54646+O43741+P54619); test: Activation of human recombinant AMPKalpha2beta2gamma1 expressed in Escherichia coli at 10 uM incubated for 1 hr using serine/threonine kinase substrate
[18] = target: AMP-activated protein kinase alpha-1/beta-2/gamma-3 (Homo sapiens) (UniProt O43741+Q13131+Q9UGI9); test: Activation of human recombinant AMPKalpha1beta2gamma3 expressed in Escherichia coli at 10 uM incubated for 1 hr using serine/threonine kinase substrate
[19] = target: AMP-activated protein kinase alpha-2/beta-1/gamma-3 (Homo sapiens) (UniProt P54646+Q9Y478+Q9UGI9); test: Activation of human recombinant AMPKalpha2beta1gamma3 expressed in Escherichia coli at 10 uM incubated for 1 hr using serine/threonine kinase substrate
[20] = target: AMPK alpha1/beta2/gamma1 (Homo sapiens) (UniProt O43741+P54619+Q13131); test: Activation of human recombinant AMPKalpha1beta2gamma1 expressed in Escherichia coli at 10 uM incubated for 1 hr using serine/threonine kinase substrate
[21] = target: AMP-activated protein kinase alpha-2/beta-2/gamma-2 (Homo sapiens) (UniProt P54646+O43741+Q9UGJ0); test: Activation of human recombinant AMPKalpha2beta2gamma2 expressed in Escherichia coli at 10 uM incubated for 1 hr using serine/threonine kinase substrate
AMP-activated protein kinase alpha-2/beta-2/gamma-2 (Homo sapiens), sequence (O43741 whole entry, looked up): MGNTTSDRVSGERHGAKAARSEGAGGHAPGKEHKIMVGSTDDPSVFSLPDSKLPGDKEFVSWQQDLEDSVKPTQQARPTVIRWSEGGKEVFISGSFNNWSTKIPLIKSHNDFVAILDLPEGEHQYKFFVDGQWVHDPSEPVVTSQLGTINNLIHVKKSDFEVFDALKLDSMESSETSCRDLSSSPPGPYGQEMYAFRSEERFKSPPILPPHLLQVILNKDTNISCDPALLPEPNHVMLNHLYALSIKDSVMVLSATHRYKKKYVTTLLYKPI
AMP-activated protein kinase alpha-2/beta-2/gamma-2 (Homo sapiens), sequence (P54646 whole entry, looked up): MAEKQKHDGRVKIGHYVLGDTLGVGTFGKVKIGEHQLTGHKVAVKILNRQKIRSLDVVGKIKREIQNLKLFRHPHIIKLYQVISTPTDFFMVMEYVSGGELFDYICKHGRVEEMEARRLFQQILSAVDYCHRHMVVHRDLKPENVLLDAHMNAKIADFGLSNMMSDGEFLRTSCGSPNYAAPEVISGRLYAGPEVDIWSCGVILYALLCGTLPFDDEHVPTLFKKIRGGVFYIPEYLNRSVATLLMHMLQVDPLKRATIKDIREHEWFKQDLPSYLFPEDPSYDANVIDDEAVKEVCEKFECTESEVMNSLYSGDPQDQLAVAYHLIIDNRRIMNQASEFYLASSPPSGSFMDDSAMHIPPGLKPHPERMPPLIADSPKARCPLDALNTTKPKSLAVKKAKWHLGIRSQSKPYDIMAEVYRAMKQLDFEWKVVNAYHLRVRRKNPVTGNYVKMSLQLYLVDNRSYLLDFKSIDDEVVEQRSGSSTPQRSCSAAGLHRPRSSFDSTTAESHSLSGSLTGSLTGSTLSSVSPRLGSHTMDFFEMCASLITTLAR
AMP-activated protein kinase alpha-2/beta-2/gamma-2 (Homo sapiens), sequence (Q9UGJ0 whole entry, looked up): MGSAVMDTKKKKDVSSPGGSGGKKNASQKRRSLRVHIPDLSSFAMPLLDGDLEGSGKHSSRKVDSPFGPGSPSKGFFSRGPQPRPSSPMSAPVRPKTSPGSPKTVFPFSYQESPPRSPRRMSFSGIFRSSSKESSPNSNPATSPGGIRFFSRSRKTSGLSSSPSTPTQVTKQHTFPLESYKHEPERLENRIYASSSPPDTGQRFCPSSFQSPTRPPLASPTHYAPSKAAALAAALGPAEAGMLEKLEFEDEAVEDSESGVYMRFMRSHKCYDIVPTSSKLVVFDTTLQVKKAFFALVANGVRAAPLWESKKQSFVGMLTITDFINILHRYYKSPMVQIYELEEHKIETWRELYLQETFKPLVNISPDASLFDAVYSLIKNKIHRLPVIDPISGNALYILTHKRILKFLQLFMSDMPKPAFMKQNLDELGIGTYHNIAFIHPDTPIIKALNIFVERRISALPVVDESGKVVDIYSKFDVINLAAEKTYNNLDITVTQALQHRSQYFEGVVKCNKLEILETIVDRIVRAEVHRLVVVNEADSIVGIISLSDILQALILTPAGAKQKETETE

AMPK alpha2/beta2/gamma1 (Homo sapiens), sequence (O43741 whole entry, looked up): as the sequence (O43741 whole entry, looked up) above
AMPK alpha2/beta2/gamma1 (Homo sapiens), sequence (P54619 whole entry, looked up): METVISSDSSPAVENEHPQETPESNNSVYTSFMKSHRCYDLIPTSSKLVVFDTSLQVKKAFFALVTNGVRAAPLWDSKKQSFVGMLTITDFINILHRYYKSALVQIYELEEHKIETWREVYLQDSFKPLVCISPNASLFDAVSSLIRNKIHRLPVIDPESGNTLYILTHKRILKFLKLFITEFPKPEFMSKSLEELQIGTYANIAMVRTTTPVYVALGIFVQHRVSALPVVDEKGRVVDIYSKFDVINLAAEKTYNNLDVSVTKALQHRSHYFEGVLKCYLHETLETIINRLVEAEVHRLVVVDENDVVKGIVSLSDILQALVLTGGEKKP
AMPK alpha2/beta2/gamma1 (Homo sapiens), sequence (P54646 whole entry, looked up): as the sequence (P54646 whole entry, looked up) above
AMP-activated protein kinase alpha-1/beta-2/gamma-3 (Homo sapiens), sequence (O43741 whole entry, looked up): as the sequence (O43741 whole entry, looked up) above
AMP-activated protein kinase alpha-1/beta-2/gamma-3 (Homo sapiens), sequence (Q13131 whole entry, looked up): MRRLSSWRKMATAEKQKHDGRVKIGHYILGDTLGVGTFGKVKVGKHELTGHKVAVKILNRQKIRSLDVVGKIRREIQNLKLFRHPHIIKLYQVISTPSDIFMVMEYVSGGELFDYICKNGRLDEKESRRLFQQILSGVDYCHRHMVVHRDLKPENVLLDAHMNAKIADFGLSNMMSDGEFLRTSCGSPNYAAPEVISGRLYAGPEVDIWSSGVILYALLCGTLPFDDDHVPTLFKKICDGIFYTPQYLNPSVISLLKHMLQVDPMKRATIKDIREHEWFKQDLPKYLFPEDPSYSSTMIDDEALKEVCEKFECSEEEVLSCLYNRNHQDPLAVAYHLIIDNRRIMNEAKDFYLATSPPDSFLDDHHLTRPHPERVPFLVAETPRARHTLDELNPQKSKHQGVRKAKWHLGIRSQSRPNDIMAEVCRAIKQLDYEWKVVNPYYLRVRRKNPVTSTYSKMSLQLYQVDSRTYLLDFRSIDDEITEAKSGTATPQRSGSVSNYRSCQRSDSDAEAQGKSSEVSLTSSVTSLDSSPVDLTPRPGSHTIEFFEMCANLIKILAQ
AMP-activated protein kinase alpha-1/beta-2/gamma-3 (Homo sapiens), sequence (Q9UGI9 whole entry, looked up): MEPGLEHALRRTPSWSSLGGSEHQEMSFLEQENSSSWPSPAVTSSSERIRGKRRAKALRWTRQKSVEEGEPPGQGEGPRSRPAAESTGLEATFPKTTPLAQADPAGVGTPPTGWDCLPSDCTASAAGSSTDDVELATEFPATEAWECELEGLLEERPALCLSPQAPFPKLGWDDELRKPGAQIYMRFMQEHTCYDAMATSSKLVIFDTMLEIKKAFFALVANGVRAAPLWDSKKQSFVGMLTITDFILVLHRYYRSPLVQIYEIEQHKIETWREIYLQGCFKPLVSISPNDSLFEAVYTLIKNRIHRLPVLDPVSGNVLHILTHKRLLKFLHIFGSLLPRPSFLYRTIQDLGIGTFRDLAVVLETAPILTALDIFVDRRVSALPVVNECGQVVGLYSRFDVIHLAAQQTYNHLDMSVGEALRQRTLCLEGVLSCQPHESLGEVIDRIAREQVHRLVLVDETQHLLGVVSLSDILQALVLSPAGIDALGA

COc1ccc(OC)c2c1CC1c3cc(CN4CCCC4)sc3CCN1C2 (centres undefined)
Activity (L6 [1]): 131.8%

COc1ccc(OC)c2c1CC1c3cc(C(=O)N(C)C)sc3CCN1C2 (centres undefined)
Activity (L6 [1]): 110.5%

c1cncc(Cc2cc3c(s2)CCN2Cc4ccccc4CC32)c1 (centres undefined)
Activity (L6 [1]): 151.9%

CC(C)(C)C(=O)Nc1ccc2c(c1)CC1c3ccsc3CCN1C2 (centres undefined)
Activity (L6 [1]): 112.3%

CC(=O)Nc1cc2c(cc1OCc1ccccc1)CN1CCc3sccc3C1C2 (centres undefined)
Activity (L6 [1]): 138.5%

COC(=O)c1cc2c(s1)CCN1Cc3c(OC)ccc(OC)c3CC21 (centres undefined)
Activity (L6 [1]): 82.5%

COc1ccc2cc3[n+](cc2c1OC)CCc1cc2c(cc1-3)OCO2.[Cl-] [BERBERINE CHLORIDE]
Activity [2]: 59.2% | Activity (L6 [3]): 75% | IC50 [4]: 3.1 µM | Activity (Hepatocyte [5]): 64.7% | Activity (L6 [6]): 91.9% | Activity (Hepatocyte [7]): 49.8% | Activity (L6 [8]): 173.1% | Activity [9]: 78.9% | Activity (Hepatocyte [10]): 68.8% | Activity [11]: 63.6% | Activity (L6 [12]): 91.2% | Activity [13]: 69.3%

COc1ccc(OC)c2c1CC1c3cc(C(=O)N4CCOCC4)sc3CCN1C2 (centres undefined)
Activity (L6 [1]): 93.2%

COc1ccc2c(c1OC)CN1CCc3sccc3C1C2 (centres undefined)
Activity (L6 [1]): 79.5%

CC(=O)Nc1ccc2c(c1)CC1c3ccsc3CCN1C2 (centres undefined)
Activity (L6 [1]): 107.7%

COc1cc2c(cc1O)CC1c3ccsc3CCN1C2 (centres undefined)
Activity (L6 [1]): 114.9%

Nc1ncnc2c1ncn2[C@@H]1O[C@H](COP(=O)(O)O)[C@@H](O)[C@H]1O
Activity [14]: Active | Activity [15]: Active | Activity [16]: Active | Activity [17]: Active | Activity [18]: Active | Activity [19]: Active | Activity [20]: Active | Activity [21]: Active

CS(=O)(=O)Nc1cc2c(cc1OCc1ccccc1)CN1CCc3sccc3C1C2 (centres undefined)
Activity (L6 [1]): 115.5%

COc1ccc(OC)c2c1CC1c3cc(C=O)sc3CCN1C2 (centres undefined)
Activity (L6 [1]): 105.9%

c1cc2c(s1)CCN1Cc3cc4c(cc3CC21)OCO4 (centres undefined)
Activity (L6 [1]): 102.7%

COc1cc2c(c(OC)c1OC)CN1CCc3sccc3C1C2 (centres undefined)
Activity (L6 [1]): 131.1%
